Results as given in PMC7763995 (Molecules, 2020).

Legend:
Human erythrocyte AChE = target: T1, Human erythrocyte AChE (Homo sapiens, UniProt P22303); assay: Kinetic study of AChE inhibition, steady-state inhibition constants; assay type: biochemical
T1 construct: AChE from human erythrocytes was used; purchased Sigma-Aldrich; host or cells: human erythrocytes
Method: Mechanisms of human erythrocyte AChE and equine serum BChE inhibition were assessed via a thorough analysis of enzyme kinetics. Residual activity was measured following 5 min incubation at 25°C (for temperature equilibration) with three increasing concentrations of inhibitor and six decreasing substrate concentrations. Substrate was added immediately after the 5 min incubation with inhibitor and the rates of absorption were monitored at 412 nm using a FLUOStar OPTIMA microplate reader.

EeAChE PAS = target: T2, EeAChE PAS (Electrophorus electricus, UniProt O42275); assay type: binding; settings: compound concentration 20 µM
T2 construct: Electric eel AChE (EeAChE, type VI-S, lyophilized powder); purchased Sigma-Aldrich type VI-S; host or cells: electric eel
T2 sequence (O42275 24-633): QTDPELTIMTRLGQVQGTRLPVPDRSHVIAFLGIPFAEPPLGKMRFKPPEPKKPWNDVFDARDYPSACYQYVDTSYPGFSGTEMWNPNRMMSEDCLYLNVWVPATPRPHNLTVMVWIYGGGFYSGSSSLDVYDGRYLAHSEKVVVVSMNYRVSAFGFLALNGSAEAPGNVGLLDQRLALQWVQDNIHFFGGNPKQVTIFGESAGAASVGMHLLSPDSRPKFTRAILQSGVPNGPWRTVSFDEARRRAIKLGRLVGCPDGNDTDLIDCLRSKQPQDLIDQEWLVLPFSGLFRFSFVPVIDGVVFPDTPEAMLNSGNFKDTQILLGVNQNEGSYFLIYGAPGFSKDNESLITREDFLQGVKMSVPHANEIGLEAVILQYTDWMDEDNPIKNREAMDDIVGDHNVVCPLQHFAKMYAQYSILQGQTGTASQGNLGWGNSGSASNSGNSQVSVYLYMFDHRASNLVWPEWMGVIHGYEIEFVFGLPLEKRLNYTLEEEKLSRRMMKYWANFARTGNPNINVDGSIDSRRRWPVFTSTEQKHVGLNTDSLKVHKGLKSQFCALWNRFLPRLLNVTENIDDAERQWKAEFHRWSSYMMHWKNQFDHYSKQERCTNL
Method: Electric eel AChE (EeAChE, type VI-S, lyophilized powder, Sigma-Aldrich, Saint Louis, MO, USA) was used owing to its high degree of purification, high activity, and lower cost compared to human AChE.
The blank contained propidium iodide of the same concentration in 1 mM Tris-HCl buffer pH 8.0. The measurements were carried out in triplicate on a FLUOStar Optima microplate reader, and the results were calculated by formula (1):% Displacement = 100 − (IFAChE+ Propidium + inhibitor / IFAChE + Propidium) × 100(1) where IFAChE + Propidium is the fluorescence intensity of the propidium associated with AChE in the absence of the test compound (taken as 100%), and IFAChE + Propidium + inhibitor is the fluorescence intensity of the propidium associated with AChE in the presence of the test compound.

[1] = ABTS radical cation scavenging activity assay; settings: 1 h incubation
Method: Radical scavenging activity of the compounds was assessed using the ABTS radical decolorization assay with some modifications. ABTS was purchased from Tokyo Chemical Industry Co., Ltd. (Tokyo, Japan), potassium persulfate (dipotassium peroxodisulfate), Trolox (6-hydroxy-2,5,7,8-tetramethychroman-2-carboxylic acid), and HPLC-grade ethanol were obtained from Sigma-Aldrich. Aqueous solutions were prepared using deionized water.
The solution of cation radical ABTS^•+ was produced by incubation of ABTS with potassium persulfate in deionized water for 12–16 h at room temperature in the dark. Radical scavenging capacity of the compounds was analyzed by mixing 10 μL of compound with 240 μL of ABTS^•+ working solution in ethanol (100 μM final concentration). The reaction was monitored for an hour with an interval of 5–10 min. Data are given for 1 h of incubation of compounds with ABTS^•+. The reduction in absorbance was measured spectrophotometrically at 734 nm using a xMark microplate UV/VIS microplate spectrophotometer (Bio-Rad, Hercules, CA, USA).
Ethanol blanks were run in each assay. Values were obtained from three replicates of each sample and three independent experiments. Standard antioxidants Trolox and BHT were used as reference compounds.
Antioxidant capacity as Trolox equivalent (TEAC) values was determined as the ratio between the slopes obtained from the linear correlation of the ABTS radical absorbance with the concentrations of tested compounds and Trolox. […] The compounds were tested in the concentration range of 0.1–100 µM.

T1 sequence (P22303 32-617 isoform P22303-2 limits assumed): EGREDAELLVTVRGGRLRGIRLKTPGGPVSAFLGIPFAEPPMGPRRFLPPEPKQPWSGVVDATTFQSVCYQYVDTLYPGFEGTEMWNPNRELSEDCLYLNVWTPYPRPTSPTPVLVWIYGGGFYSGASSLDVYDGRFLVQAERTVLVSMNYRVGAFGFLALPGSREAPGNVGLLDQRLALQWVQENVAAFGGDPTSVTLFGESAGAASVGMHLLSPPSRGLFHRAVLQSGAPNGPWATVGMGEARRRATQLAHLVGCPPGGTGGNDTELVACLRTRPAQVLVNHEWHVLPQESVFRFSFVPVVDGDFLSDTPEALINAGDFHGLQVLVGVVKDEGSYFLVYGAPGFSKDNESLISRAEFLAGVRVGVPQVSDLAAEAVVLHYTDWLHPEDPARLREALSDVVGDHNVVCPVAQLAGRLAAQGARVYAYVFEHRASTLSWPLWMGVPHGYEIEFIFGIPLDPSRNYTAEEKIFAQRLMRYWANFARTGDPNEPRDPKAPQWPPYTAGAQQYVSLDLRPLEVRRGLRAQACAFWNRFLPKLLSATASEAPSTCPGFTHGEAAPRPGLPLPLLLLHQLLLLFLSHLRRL

CC(C)(C)c1cc(C=NCCNc2c3c(nc4ccccc24)CCCCC3)cc(C(C)(C)C)c1O [Compound 7c, 2,6-Di-tert-butyl-4-{[2-(7,8,9,10-tetrahydro-6H-cyclohepta[b]quinolin-11-ylamino)-ethylimino]-methyl}-phenol]
αKi (noncompetitive component), AChE (Human erythrocyte AChE; Lineweaver-Burk plots): 4.30 ± 0.02 µM | Ki (Human erythrocyte AChE; Lineweaver-Burk plots, read-out: Ki (competitive component), AChE): 1.58 ± 0.1 µM | Mechanism of AChE inhibition (Human erythrocyte AChE; changes in both Km and Vmax): mixed type of reversible inhibition | Displacement of Propidium from EeAChE PAS (%) (EeAChE PAS): 16.3 ± 1.3% | IC50 [1]: 17.8 ± 1.6 µM | ABTS^•+-Scavenging Activity, TEAC ([1]; ratio of slopes test compound/Trolox): 1.11 ± 0.04
